Measurements from patent publication US20240189385A1, “KEAP1/NRF2 PROTEIN-LIKE POLYMERS” (Northwestern University, priority 2021, published 2024).
Ends that are not written are not given here.

Each compound was assayed on Antioxidant Response Element (ARE), Nrf2 antioxidant pathway (assay: Antioxidant Response Element (ARE) luciferase reporter assay). Details: 0 μM to 50 μM with respect to peptide; 24 hours; FIGS. 38A, 38B.
Format: cell-based
Procedure: The Antioxidant Response Element (ARE) Luciferase Reporter HepG2 Cell line was used to probe Nrf2 antioxidant pathway activation. ARE-HepG2 cells were cultured in growth media (BPS bioscience) according to manufacturer's recommendations. […] PLPs and peptides were tested at concentrations ranging from 0 μM to 50 μM with respect to peptide along with controls (untreated and tBHQ positive control at 100 μM) in triplicate. Cells were incubated for 24 hours post-treatment. ONE-step luciferase assay reagent was added at 100 μL/well, followed by rocking at room temperature for 15 min. Luminescence was assessed using a Biotek SynergyNeo2 plate reader. Background luminescence of cell free controls wells was subtracted from test wells. ARE activation was reported as luminescence relative to the average of the untreated controls wells.

Row | Compound | ARE activation
1 | CC(C)C[C@H](NC(=O)[C@H](Cc1ccccc1)NC(=O)[C@H](CCC(=O)O)NC(=O)CNC(=O)[C@@H](NC(=O)[C@H](CCC(=O)O)NC(=O)[C@@H]1CCCN1C(=O)[C@H](CC(=O)O)NC(=O)[C@@H](N)CC(C)C)[C@@H](C)O)C(=O)N[C@@H](CCCNC(=N)N)C(=O)N[C@@H](CCCNC(=N)N)C(=O)N[C@@H](CCCNC(=N)N)C(=O)N[C@@H](CCCNC(=N)N)C(N)=O [SEQ ID NO: 72] | did not activate ARE
2 | Full Scramble PLP: full scramble polynorbornene dicarboxyimide-based brush polymer comprising SEQ ID NO: 143 (DERLERPLTRGFR) peptide monomer, Example 13 (also: part of polynorbornene dicarboxyimide-based brush polymer) [reference compound] | did not activate ARE
3 | ScrambleR PLP: scrambleRRRR polynorbornene dicarboxyimide-based brush polymer comprising SEQ ID NO: 146 (DELEPLTGFRRRR) peptide monomer, Example 14 (also: part of polynorbornene dicarboxyimide-based brush polymer) [reference compound] | did not activate ARE
